How the values were obtained:
Assay type in all cases: in vivo
[1] = system: Spodoptera littoralis; assay: Study on Spodoptera littoralis (haricot leaf dip test); conditions: starting from a dose of 300 ppm, after seven days, 25 C
Protocol: The product was dissolved at the desired concentration in an acetone-water mixture (50-50). Haricot leaves (Phaseolus vulgaris, var. […]) were immersed for five seconds in the solution, then left to dry in a Petri dish for one hour. Ten larvae of Spodoptera littoralis were then added to each dish. These were kept at a temperature of 25 C., with a photoperiod of twelve hours. After seven days, the mortality of the larvae was checked and the foliar surface consumed was evaluated.

[2] = system: Heliothis virescens; assay: Study on Heliothis virescens (artificial medium surface treatment); conditions: starting from a dose of 300 ppm; neonate larva; after seven days; 25 C
Protocol: The product was dissolved at the desired concentration in an acetone-water mixture (50-50). 50 μl of solution were deposited on the surface of a small well containing approximately 2 grams of plant-based artificial medium. One neonate larva of Heliothis virescens was then introduced into each well, which was sealed with a sheet of cellophane. The tests were kept at a temperature of 25 C., with a photoperiod of twelve hours. The mortality of the larvae was checked after seven days.

[3] = system: Leptinotarsa decemlineata; assay: Study on Leptinotarsa decemlineata (aubergine foliar disk dip test); conditions: starting from a dose of 300 ppm; larvae (3rd stage); after four days; 25 C
Protocol: The product was dissolved at the desired concentration in an acetone-water mixture (50-50). Foliar disks of aubergine were immersed in the solution, then left to dry for one hour. Ten larvae (3rd stage) were added into a Petri dish each containing a foliar disk. These were kept at a temperature of 25 C. After four days, the mortality of the insects was checked.

[4] = system: Phaedon cochleariae; assay: Study on Phaedon cochleariae (foliar disk dip test, Chinese cabbage); conditions: starting from a dose of 300 ppm; adults; after seven days; 25 C
Protocol: The product was dissolved at the desired concentration in an acetone-water mixture (50-50). Foliar disks of Chinese cabbage (Brassica pekinensis) were immersed for five seconds in the solution, then left to dry for one hour. Ten adults (a mixture of males and females) were added into a Petri dish containing a foliar disk each. These were kept at a temperature of 25 C., with a photoperiod of twelve hours. After seven days, the mortality of the insects was checked and the foliar surface consumed was evaluated.

Structure (SMILES): Cc1ccccc1NC(=O)c1ccc(CC=Cc2ccc(Cl)c(Cl)c2)cc1 [Example 7, 4-[3-(3,4-dichlorophenyl)-2-propenyl]-N-(2-methylphenyl)-benzamide]
- activity (mortality of the larvae and foliar surface consumed) [1]: good activity
- activity (mortality of the larvae) [2]: good activity

Structure (SMILES): Cc1ccccc1NC(=O)c1ccc(CC=C(Cl)c2ccc(Cl)c(Cl)c2)cc1 [Example 6, 4-[3-chloro-3-(3,4-dichlorophenyl)-2-propenyl]-N-(2-methylphenyl)-benzamide]
- activity (mortality of the larvae and foliar surface consumed) [1]: good activity
- activity (mortality of the larvae) [2]: good activity
- activity (mortality of the insects) [3]: very interesting activity
- activity (mortality of the insects and foliar surface consumed) [4]: good activity

Structure (SMILES): Cc1ccccc1NC(=O)c1ccc(CC(F)Cc2ccc(Cl)c(Cl)c2)cc1 (stereo not drawn) [Example 1, 4-[3-(3,4-dichlorophenyl)-2-fluoropropyl]-N-(2-methylphenyl)-benzamide]
- activity (mortality of the larvae and foliar surface consumed) [1]: good activity
- activity (mortality of the larvae) [2]: good activity

Structure (SMILES): CC(=CCc1ccc(C(=O)Nc2ccccc2C)cc1)c1ccc(Cl)c(Cl)c1 [Example 5, 4-[3-(3,4-dichlorophenyl)-2-butenyl]-N-(2-methylphenyl)-benzamide]
- activity (mortality of the larvae and foliar surface consumed) [1]: good activity
- activity (mortality of the larvae) [2]: good activity

Structure (SMILES): Cc1ccccc1NC(=O)c1ccc(CC(F)=Cc2ccc(Cl)c(Cl)c2)cc1 [Example 2]
- activity (mortality of the larvae and foliar surface consumed) [1]: good activity
- activity (mortality of the larvae) [2]: good activity

Source: patent US20020068838A1, “AROMATIC AMIDES, THEIR PREPARATION PROCESS AND THEIR USE AS PESTICIDES” (priority 1997, published 2002)
